Laboratory results: patent US8822486B2, “Spiropiperidine compounds” (Eli Lilly and Company, priority 2009, dated 2014)

Legend:
Assay type in all cases: cell-based
PPARγ = biological target: T1, PPARγ (Homo sapiens, UniProt P37231); assay: PPARγ reporter functional assay in CV1 cells; conditions: examined up to 10 μM, luciferase reporter, 24 hours
T1 sequence (P37231 1-505): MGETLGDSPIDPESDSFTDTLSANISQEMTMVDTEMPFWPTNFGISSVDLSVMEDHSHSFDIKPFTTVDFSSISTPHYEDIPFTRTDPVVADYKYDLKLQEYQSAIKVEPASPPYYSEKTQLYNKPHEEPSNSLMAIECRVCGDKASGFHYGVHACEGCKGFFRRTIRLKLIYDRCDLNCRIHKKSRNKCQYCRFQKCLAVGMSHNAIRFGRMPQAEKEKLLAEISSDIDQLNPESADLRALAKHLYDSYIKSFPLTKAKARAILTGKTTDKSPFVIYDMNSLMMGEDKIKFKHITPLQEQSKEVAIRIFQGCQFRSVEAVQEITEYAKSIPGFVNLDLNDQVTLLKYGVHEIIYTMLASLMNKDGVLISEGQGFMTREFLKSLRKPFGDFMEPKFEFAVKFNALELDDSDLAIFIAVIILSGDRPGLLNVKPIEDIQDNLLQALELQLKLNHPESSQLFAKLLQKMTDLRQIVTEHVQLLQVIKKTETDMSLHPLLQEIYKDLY
T1 sequence (P19793 1-462 partner): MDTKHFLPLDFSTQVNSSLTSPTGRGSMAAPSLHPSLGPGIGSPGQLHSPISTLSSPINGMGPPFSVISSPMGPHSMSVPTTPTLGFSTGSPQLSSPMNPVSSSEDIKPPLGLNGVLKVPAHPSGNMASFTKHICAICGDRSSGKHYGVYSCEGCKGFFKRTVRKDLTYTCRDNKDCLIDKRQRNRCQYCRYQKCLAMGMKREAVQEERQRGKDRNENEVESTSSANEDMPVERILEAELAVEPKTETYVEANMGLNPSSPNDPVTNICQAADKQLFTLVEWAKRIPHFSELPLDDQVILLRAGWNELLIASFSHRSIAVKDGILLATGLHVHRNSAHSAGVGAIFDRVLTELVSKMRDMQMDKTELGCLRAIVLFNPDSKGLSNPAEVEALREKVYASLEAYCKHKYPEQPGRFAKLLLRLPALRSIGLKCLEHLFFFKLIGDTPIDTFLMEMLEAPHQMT
From the text: (§1) Gal4 PPARα, Gal4 PPARδ, and PPARγ reporter functional assays are also used to monitor the selectivity of exemplified compounds. CV1 cells, which are derived from the renal tissue of an African green monkey, are transfected with various receptor and reporter plasmids using Fugene. For the Gal4 PPARα and PPARδ assays, a reporter plasmid containing five tandem copies of the yeast transcription protein Gal4 response element, cloned upstream of a firefly luciferase gene driven by the major late promoter of adenovirus, is transfected together with a Simian Virus 40 (SV40) driven plasmid constitutively expressing a hybrid protein containing the Gal4 DNA binding domain (DBD), and either the PPARα or PPARδ ligand binding. For the PPARγ assay, plasmids encoding PPARγ and RXRα, both driven by a cytomegalovirus (CMV) promoter are transfected together with a plasmid containing luciferase reporter cDNA driven by the TK promoter and a receptor response element (2×PPRE). Cells are transfected in T225 cm^2 cell culture flasks in DMEM media with 5% charcoal-stripped FBS. […] After 24 hours incubation with compounds, cells are lysed and luciferase activity is determined as a measure of receptor activation by luminescence. […] The maximum percent stimulation is determined versus maximum stimulation obtained with 10 μM of an appropriate PPAR agonist reference compound. […]

Gal4 PPARδ = biological target: T2, Gal4 PPARδ (Homo sapiens, UniProt Q03181); assay: Gal4 PPARδ reporter functional assay in CV1 cells; conditions: examined up to 10 μM, luciferase reporter, 24 hours
T2 construct: expressed in transfected cells; host or cells: CV1 (African green monkey kidney)
T2 sequence (Q03181 211-439 limits assumed): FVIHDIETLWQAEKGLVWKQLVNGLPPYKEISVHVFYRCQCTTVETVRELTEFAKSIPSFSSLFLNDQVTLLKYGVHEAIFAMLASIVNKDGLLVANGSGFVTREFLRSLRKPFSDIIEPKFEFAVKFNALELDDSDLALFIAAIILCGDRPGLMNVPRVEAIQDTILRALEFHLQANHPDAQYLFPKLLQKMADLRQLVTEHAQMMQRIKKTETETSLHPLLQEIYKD
From the text: as §1

Gal4 PPARα = biological target: T3, Gal4 PPARα (Homo sapiens, UniProt Q07869); assay: Gal4 PPARα reporter functional assay in CV1 cells; conditions: examined up to 10 μM, luciferase reporter, 24 hours
T3 construct: expressed in transfected cells; host or cells: CV1 (African green monkey kidney)
T3 sequence (Q07869 239-466 limits assumed): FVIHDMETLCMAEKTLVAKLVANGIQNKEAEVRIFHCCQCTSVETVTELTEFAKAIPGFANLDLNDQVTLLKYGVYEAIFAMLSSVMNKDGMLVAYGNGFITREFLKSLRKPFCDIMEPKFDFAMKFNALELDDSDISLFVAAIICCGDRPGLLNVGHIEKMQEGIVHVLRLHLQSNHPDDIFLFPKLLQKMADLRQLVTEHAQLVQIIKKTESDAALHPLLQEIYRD
From the text: as §1

human GPR40 = biological target: T4, human GPR40 (Homo sapiens, UniProt O14842); assay: Calcium Flux Primary Assay
T4 construct: expressed in transfected cells; host or cells: HEK293
T4 sequence (O14842 whole entry): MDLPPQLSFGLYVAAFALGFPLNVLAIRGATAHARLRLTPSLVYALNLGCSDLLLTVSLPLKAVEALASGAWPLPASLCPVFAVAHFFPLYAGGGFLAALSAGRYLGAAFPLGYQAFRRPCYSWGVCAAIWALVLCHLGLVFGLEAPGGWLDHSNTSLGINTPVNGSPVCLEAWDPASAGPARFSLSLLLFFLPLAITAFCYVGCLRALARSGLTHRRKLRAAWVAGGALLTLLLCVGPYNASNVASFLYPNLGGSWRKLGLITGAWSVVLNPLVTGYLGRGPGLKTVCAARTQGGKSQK
Experimental: Calcium Flux Primary Assay
HEK293 cells over expressing the human GPR40 cDNA maintained in Dulbecco's modified Eagle's medium with F12 medium in 3:1 ratio supplemented with 10% FBS and 800 μg/ml geneticin at 37° C. and 5% CO2 are employed for the study. Agonist assays are performed using a Calcium 4 Dye assay kit (Molecular Devices) in the presence (0.1%) or absence of fatty acid free BSA in the assay buffer (1×HBSS (Hank's Balanced Salt Solution) & 20 mM HEPES (4-(2-hydroxyethyl)-1-piperazineethanesulfonic acid). Receptor activation is measured as an increase in intracellular calcium using the Fluorometric Imaging Plate Reader (FLIPR). Maximum change in fluorescence over the base line is used to determine agonist response. EC50 (effective concentration at half the maximal response) value of the compound is calculated using Excel Fit software (version 4; IDBS) by plotting concentration vs relative fluorescence units (RFUs).

CC#C[C@@H](CC(=O)O)c1ccc(OCc2ccc(CN3CCC4(C=Cc5ccccc54)CC3)s2)cc1 [Example 1, (3S)-3-[4-[[5-(Spiro[indene-1,4′-piperidine]-1′-ylmethyl)-2-thienyl]methoxy]phenyl]hex-4-ynoic acid]
functional activation of PPARγ (PPARγ): No functional activation
functional activation of PPARδ (Gal4 PPARδ): No functional activation
functional activation of PPARα (Gal4 PPARα): No functional activation
EC50 (human GPR40; HEK293 cells over expressing human GPR40, intracellular calcium, FLIPR): 114 nM
Percent efficacy (human GPR40; maximal response compared to the natural ligand, linoleic acid): 91+/−9%
